The values that follow come from patent US20200330400A1, “METHODS FOR THE TREATMENT OF CANCER USING COENZYME Q10 AND FATTY ACID METABOLISM INHIBITORS” (Berg LLC, priority 2016, published 2020).

Assay [1] relates to SKBr-3 breast cancer cells. Nature of the assay: Cell viability of SKBr-3 breast cancer cells exposed to Coenzyme Q10 alone or with fatty acid metabolism inhibitors. It is filed as cell-based. The following applies: for Sensitivity of cells to Coenzyme Q10 when treated in combination (shift of Coenzyme Q10 dose-response curve): SkBr-3, co-treatment with named agent. The protocol: (§1) Cell viability was assessed in MDA-MB231 and SkBr-3 breast cancer cells exposed to Coenzyme Q10 alone or in combination with the fatty acid metabolism inhibitors C75, etomoxir, and trimetazidine, as well as a more pleiotropic fatty acid metabolism modulator, metformin. […] Metformin is used clinically as an anti-diabetic agent to suppress glucose production by the liver; however, the mechanism of action remains incompletely understood.
(§2) Coenzyme Q10 was applied to the cells in a 4% Coenzyme Q10 nanosuspension formulation (as described in WO 2011/112900, the entire contents of which are expressly incorporated herein by reference) comprising a phosphatidylcholine (e.g., dimyristoylphosphatidyl choline (DMPC)).

Assay [2] has as its system MDA-MB231 breast cancer cells. Nature of the assay: Cell viability of MDA-MB231 breast cancer cells exposed to Coenzyme Q10 alone or with fatty acid metabolism inhibitors. In kind it is cell-based, human. Conditions: for Sensitivity of cells to Coenzyme Q10 when treated in combination (shift of Coenzyme Q10 dose-response curve): MDA-MB231, co-treatment with named agent. The protocol: as §1, §2

Assay [3] concerns MIA PaCa-2 pancreatic cancer cells. Nature of the assay: Cell viability of MIA PaCa-2 pancreatic cancer cells exposed to Coenzyme Q10 alone or with fatty acid metabolism inhibitors. In kind it is cell-based. Conditions: for Sensitivity of cells to Coenzyme Q10 when treated in combination (reduced viability): co-treatment with named agent. From the text:
Cell viability was next assessed in MIA PaCa-2 pancreatic cancer cells exposed to Coenzyme Q10 alone or in combination with the fatty acid metabolism inhibitors C75, etomoxir, trimetazidine, metformin, and the Stearoyl-CoA desaturase-1 (SCD-1) inhibitor A939572. […] SCD-1 is an endoplasmic reticulum enzyme that catalyzes the formation of the monounsaturated fatty acids oleic acid and palmitoleic acid from stearoyl-CoA and palmitoyl-CoA. Oleic acid and palmitoleic acid are major components of membrane phospholipids, cholesterol esters and alkyl-diacylglycerol. Thus SCD-1 is a key enzyme in fatty acid metabolism. Inhibition of SCD-1 results in depletion of mono-unsaturated fatty acids and reduction of lipid storage.

Assay [4] deals with fatty acid metabolism genes FASN, CPT1, ACSL1 and DGAT1. Nature of the assay: mRNA expression of fatty acid metabolism genes in MDA-MB231 cells treated with Coenzyme Q10. It is filed as cell-based, human. Conditions: Coenzyme Q10 alone. From the text:
FASN catalyzes the synthesis of the fatty acid palmitate (C16:0, a long-chain saturated fatty acid) from acetyl-CoA and malonyl-CoA, in the presence of NADPH. CPT-1 is a mitochondrial enzyme responsible for the formation of acyl carnitines by catalyzing the transfer of the acyl group of a long-chain fatty acyl-CoA from coenzyme A to l-carnitine. CPT-1 mediated formation of acyl carnitine allows for subsequent movement of the acyl carnitine from the cytosol into the intermembrane space of mitochondria. ACSL1 activates the degradation of complex fatty acids. Specifically, this enzyme catalyzes the formation of fatty acyl-CoA by a two-step process proceeding through an adenylated intermediate. DGAT1 catalyzes the formation of triglycerides from diacylglycerol and Acyl-CoA. The reaction catalyzed by DGAT is considered the terminal and only committed step in triglyceride synthesis and to be essential for the formation of adipose tissue.

Assay [5] has as its system MDA-MB231 breast cancer cells. Nature of the assay: Free glycerol, DAG and TAG content in MDA-MB231 cells treated with Coenzyme Q10. It is filed as cell-based, human. Conditions: Coenzyme Q10 treatment. From the text:
FIGS. 6B and 6C show diacylglyceride (DAG) (B), and triacylglyceride (TAG) content (C) in MDA-MB231 breast cancer cells treated with Coenzyme Q10.
To further evaluate the effect of Coenzyme Q10 on cancer cell lipid composition, structural lipidomic analysis was used to assess the metabolic fate of the lipid components of the Coenzyme Q10 formulation itself, such as DMPC. DMPC is a 14:0 lipid which is not found endogenously in human cells. Accordingly, it was possible to distinguish between DMPC-containing species based on the length of the fatty acid chains, e.g. 28:0 DAG and 42:0 TAG are not found endogenously. […] Accordingly, cancer cells treated with lipid-containing formulations may be especially sensitive to fatty acid metabolism inhibitors, due to the increased fatty acid metabolism activity resulting from storage and degradation of the lipid formulation components.

Turning to `CN(C)C(=N)N=C(N)N` [Metformin], the “Sensitivity of cells to Coenzyme Q10 when treated in combination (shift of Coenzyme Q10 dose-response curve)” value in assay [1] and in assay [2] was “did not alter cytotoxic responses to Coenzyme Q10” each time. Also, the Cell viability result is “lower viability than cells treated with Coenzyme Q10 alone” in assay [3] (Coenzyme Q10 and 0.5 mM metformin); “lower viability than cells treated with Coenzyme Q10 and 0.5 mM metformin” in assay [3] (Coenzyme Q10 and 1 mM or 5 mM metformin). Also, the “Sensitivity of cells to Coenzyme Q10 when treated in combination (reduced viability)” value (“Sensitivity of cells … (reduced viability)” for short) in assay [3] is on record as “more sensitive to Coenzyme Q10”.
Regarding `COC1=C(OC)C(=O)C(C/C=C(\C)CC/C=C(\C)CC/C=C(\C)CC/C=C(\C)CC/C=C(\C)CC/C=C(\C)CC/C=C(\C)CC/C=C(\C)CC/C=C(\C)CCC=C(C)C)=C(C)C1=O` [Coenzyme Q10], the EC50 – broadly, the concentration at which the effect is half-maximal – in assay [1] (EC50 of Coenzyme Q10 (4% nanosuspension) alone or plus named inhibitor, inhibitor concentration not in table) amounted to 599 µM; in assay [2] (EC50 of Coenzyme Q10 (4% nanosuspension) alone or plus named inhibitor, inhibitor concentration not in table (FIGS. 1-4: C75 5 μM, Etomoxir 50 μM, Trimetazidine 375 μM, metformin 500 μM)) it was 165 µM; in assay [3] (Coenzyme Q10 alone (A939572 experiment, FIG. 10)), 142 µM; in assay [3] (Coenzyme Q10 alone (metformin experiment, FIG. 8)), 261 µM; in assay [3] (Coenzyme Q10 alone or with Etomoxir 100 μM, C75 10 μM or Trimetazidine 250 μM (FIG. 9)), 284 µM. Also, in assay [4], the “mRNA expression of FASN, CPT-1, ACSL1 and DGAT1” value is “dose- and time-dependent increase in mRNA expression”. Moreover, the “Diacylglyceride (DAG), triacylglyceride (TAG) and glycerol content” value in assay [5] is “accumulation of diacylglyceride (DAG), triacylglyceride (TAG) and the triglyceride backbone, glycerol”.
As to `CCOC(=O)C1(CCCCCCOc2ccc(Cl)cc2)CO1` (stereo not shown) [Etomoxir, 2-(6-(4-chlorophenoxy)-hexyl)-oxirane-2-carboxylic acid ethyl ester], the “Sensitivity of cells to Coenzyme Q10 when treated in combination (shift of Coenzyme Q10 dose-response curve)” value in assay [1] and in assay [2] was “more sensitive to Coenzyme Q10” throughout. Also, in assay [3], the “Sensitivity of cells … (reduced viability)” value is listed as “more sensitive to Coenzyme Q10”.
On to `CNC(=O)c1cccc(NC(=O)N2CCC(Oc3ccccc3Cl)CC2)c1` [A939572], for which the “Sensitivity of cells … (reduced viability)” value in assay [3] was “more sensitive to Coenzyme Q10”.
Consider `COc1ccc(CN2CCNCC2)c(OC)c1OC` [Trimetazidine], for which the “Sensitivity of cells to Coenzyme Q10 when treated in combination (shift of Coenzyme Q10 dose-response curve)” value in assay [1] and in assay [2] was “more sensitive to Coenzyme Q10” throughout. In assay [3], the “Sensitivity of cells … (reduced viability)” value was “more sensitive to Coenzyme Q10”.
With `C=C1C(=O)OC(CCCCCCCC)C1C(=O)O` (stereo not shown) [C75], the “Sensitivity of cells to Coenzyme Q10 when treated in combination (shift of Coenzyme Q10 dose-response curve)” value in assay [1] and in assay [2] was “more sensitive to Coenzyme Q10” each time. In assay [3], the “Sensitivity of cells … (reduced viability)” value is recorded as “more sensitive to Coenzyme Q10”.
